The values below come from ChEMBL document CHEMBL3886568, “Pyridine derivatives as agonists of the CB2 receptor” (2016).

Each structure is given as a SMILES string. pEC50: −log10 of the molar value.

This assay addresses Cannabinoid receptor 1 (Homo sapiens, UniProt P21554). Description: cAMP Assay: CHO cells expressing human CB1 or CB2 receptors are seeded 17-24 hours prior to the experiment 50.000 cells per well in a black 96 well plate with flat clear bottom (Corning Costar #3904) in DMEM (Invitrogen No. 31331), 1×HT supplement, with 10% fetal calf serum and incubated at 5% CO2 and 37° C. in a humidified incubator. The growth medium was exchanged with Krebs Ringer Bicarbonate buffer with 1 mM IBMX and incubated at 30° C. for 30 min Compounds were added to a final assay volume of 100 ul and incubated for 30 min at 30° C. Using the cAMP-Nano-TRF detection kit the assay (Roche Diagnostics) was stopped by the addition of 50 ul lysis reagent (Tris, NaCl, 1.5% Triton X100, 2.5% NP40, 10% NaN3) and 50 ul detection solutions (20 uM mAb Alexa700-cAMP 1:1, and 48 uM Ruthenium-2-AHA-cAMP) and shaken for 2 h at room temperature. The time-resolved energy transfer is measured by a TRF reader (Evotec Technologies GmbH), equipped with a ND:YAG laser as excitation source. The plate is measured twice with the excitation at 355 nm and at the emission with a delay of 100 ns and a gate of 100 ns, total exposure time 10 s at 730 (bandwidth 30 nm) or 645 nm (bandwidth 75 nm), respectively. The FRET signal is calculated. The assay is classed as functional, cell-based.

Cannabinoid receptor 1, sequence (P21554 whole entry): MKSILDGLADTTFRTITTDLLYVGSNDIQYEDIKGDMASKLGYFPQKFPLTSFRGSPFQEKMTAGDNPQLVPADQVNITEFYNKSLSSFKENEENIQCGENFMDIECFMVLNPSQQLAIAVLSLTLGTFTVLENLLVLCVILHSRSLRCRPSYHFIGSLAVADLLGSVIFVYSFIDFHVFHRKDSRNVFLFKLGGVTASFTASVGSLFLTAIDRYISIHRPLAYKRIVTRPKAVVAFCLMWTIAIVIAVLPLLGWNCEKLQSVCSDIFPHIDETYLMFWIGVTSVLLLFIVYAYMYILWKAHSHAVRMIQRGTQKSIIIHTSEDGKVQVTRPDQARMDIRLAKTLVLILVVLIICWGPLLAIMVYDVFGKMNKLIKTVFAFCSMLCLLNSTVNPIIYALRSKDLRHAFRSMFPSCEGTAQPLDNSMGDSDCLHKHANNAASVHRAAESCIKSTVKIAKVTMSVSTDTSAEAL

`O=C(N[C@@H](CC1CC1)C(=O)NC1CCC(O)C1)c1ccc(C2CC2)c(OCC2CC2)n1` (stereo partly specified): the negative-log EC50 (pEC50) was below 5.00.
